This passage reports GI50 and TGI results from PubChem BioAssay (NCI).

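These data come from cells grown in 96-well plates and exposed to compound for 48 hours at five concentrations. Here, GI50 denotes the concentration required for 50% inhibition of growth. TGI: concentration producing complete growth inhibition.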

The test system of the assay is MDA-MB-468 breast. In words: NCI anticancer screen, dose series, 48 h.
With `Cc1nc2ccccc2nc1N=Nc1ccccc1`, the GI50 is 21 µM and the TGI was over 100 µM.

Turning to `Cc1cc(O)c(C2=NN(c3ccc(S(N)(=O)=O)cc3)C(/C=C/c3ccccc3)C2)cc1Cl` (stereo unspecified), the GI50 is 3.94 µM and the TGI came out at 13.8 µM.

In the case of `COc1cnc2c(c1)C(=O)c1c-2n(CCCN2CCC(O)CC2)c(=O)c2cc(Cl)ccc12`, the GI50 was 0.521 µM and the TGI amounted to 10.8 µM.

Take `Cn1cc(C2=C(Nc3ccccc3)C(=O)NC2=O)c2ccccc21`: the GI50 is over 23 µM and the TGI is over 25 µM.

With `Cc1ccc(C2NC(=O)c3ccccc3N2)c(C)c1` (stereo unspecified), the GI50 was 6.4 µM and the TGI was over 100 µM.

Regarding `O=C(N/N=C/c1cccs1)c1[nH]c2ccc(Br)cc2c1-c1ccccc1`, the GI50 is 0.0881 µM and the TGI stood at 4.26 µM.

Regarding `CN1CCN(c2nc(-c3csc(-c4cccs4)n3)cc3ccccc23)CC1`, the GI50 was 1.69 µM and the TGI came to 3.39 µM.

For the compound `COc1ccc(-c2c3c(nc4n[nH]c(-c5ccc(Cl)cc5)c24)-c2ccccc2C(=O)C3=O)cc1`, the GI50 was 1.65 µM and the TGI was 3.47 µM.

For `CCCCCCNCc1cc(C(C)(C)C)cc(CNCCCCCC)c1O`, the GI50 is 1.59 µM and the TGI came out at 3.01 µM.

With `Cc1nc2cc(Nc3nc(Nc4ccc(F)cc4)nc(N4CCOCC4)n3)ccc2n1Cc1ccccc1`, the GI50 is 1.52 µM and the TGI stood at 4.28 µM.

As to `COc1ccc(NC2=C(Cl)C(=O)C(C)=C(C)C2=O)cc1`, the GI50 was 1.29 µM and the TGI came out at 2.75 µM.

As for `COc1ccc(CCN2CCC(CN(C)Cc3cnn(-c4ccccc4)c3)CC2)cc1`, the GI50 was 4.99 µM and the TGI was 21.3 µM.

`CC(=O)O[C@H]1C[C@@H]2OC3C=C(C)CCC3(C)[C@@]1(C)[C@@]21CO1` (stereo partly specified): the GI50 is 0.284 µM and the TGI was determined as 1.57 µM.

With `Cc1[nH]c2cc(F)ccc2c1-c1nc2c3cccnc3c3ncccc3c2[nH]1`, the GI50 is 0.0273 µM and the TGI came out at 0.0828 µM.

Turning to `CN(CCC(=O)/C(=C\c1ccccc1)c1ccc(Cl)cc1)Cc1ccccc1`, the GI50 is 2.14 µM and the TGI stood at 5.96 µM.

Consider `COCCOCCOCc1n(Cc2ccc3ccccc3n2)c2ccccc2[n+]1Cc1ccc2ccccc2n1`, for which the GI50 is 0.19 µM and the TGI is 2.25 µM.

As for `CC(=O)/C=C/c1ccc(OCc2ccc(Cl)cc2)cc1`, the GI50 is 161 µM and the TGI was 872 µM.

For the compound `Cc1nc2sc(C(=O)c3ccc(Cl)cc3)c(N)c2c(-c2ccccc2Cl)c1C(=O)Nc1ccccc1`, the GI50 was 17.5 µM and the TGI turned out to be 37 µM.

Consider `COc1cc(Cl)cc(-c2nn(-c3cccc(NC(=O)Nc4ccc(Cl)c(Cl)c4)c3)cc2-c2ccncc2)c1`, for which the GI50 is 1.74 µM and the TGI was determined as 7.37 µM.

For `COc1cc(C)c2sc3ccccc3c(=O)c2c1NCCN(C)C`, the GI50 was 2.15 µM and the TGI was determined as 5.06 µM.

Turning to `COc1ccc(C(=O)c2sc3nc(-c4cccs4)ccc3c2N)cc1OC`, the GI50 is 1.87 µM and the TGI is over 100 µM.

`NC1(Cc2ccc(Cl)cc2)CCN(c2ncnc3[nH]ccc23)CC1`: the GI50 is 1.92 µM and the TGI was determined as 12.8 µM.

For `CC1=C2C(=C[C@@](C)(COC(=O)c3ccc(S(=O)(=O)F)cc3)[C@@H]2O)C(=O)[C@](C)(O)C12CC2`, the GI50 was 0.53 µM and the TGI came out at 2.17 µM.

Turning to `COc1cc2c(c(OC)c1OC)-c1ccc(N=NC(N)=S)c(=O)cc1[C@@H](NC(C)=O)CC2`, the GI50 was 0.301 µM.

As for `CCCCCCCCCCCCCC[n+]1ccc(C)cc1`, the GI50 is 0.207 µM and the TGI is 0.808 µM.

Consider `O=C1N(Cc2ccccc2Cl)c2ccccc2C12NN=C(c1cccc(Cl)c1)S2` (stereo unspecified), for which the GI50 was 1.91 µM and the TGI was found to be 3.77 µM.

On to `O=[N+]([O-])c1cc([N+](=O)[O-])c(Cl)cc1Cl`, for which the GI50 was 1.66 µM and the TGI was determined as 3.38 µM.

On to `CCCCNc1ccc(Nc2ccccc2)cc1`, for which the GI50 was 1.81 µM and the TGI turned out to be 9.42 µM.

On to `Cc1cccc2c3c(sc12)C(c1ccc(F)cc1)C(C#N)=C(N)O3` (stereo unspecified), for which the GI50 is 0.0315 µM and the TGI came out at 0.551 µM.

Take `O=C1/C(=C/c2ccc(O)cc2)COc2ccc(O)c(O)c21`: the GI50 is 1.99 µM and the TGI was determined as 5.69 µM.

In the case of `CC(C)C(=O)Nc1ccc(-c2nc(-c3cccc(O)c3)c(-c3ccnc(Br)c3)[nH]2)cc1`, the GI50 was 0.795 µM and the TGI was determined as 2.74 µM.

Take `CC(C)(C)OC(=O)NCc1cccc(N=C=S)c1`: the GI50 is 14.8 µM and the TGI amounted to 48.1 µM.

On to `NC(=O)c1sc(-n2cnc3cc(C(F)(F)F)ccc32)cc1OCc1ccccc1Br`, for which the GI50 was over 11.5 µM and the TGI is over 23.4 µM.

Take `NC(CSSCC(N)C(=O)O)C(=O)O` (stereo unspecified): the GI50 is over 100 µM and the TGI is over 100 µM.

As for `COC(=O)C(C(=O)OC)C(Br)C(Br)C(Br)c1ccccc1` (stereo unspecified), the GI50 is 2.06 µM and the TGI was 6.18 µM.

For the compound `O=C1c2cccnc2C(=O)c2c1c(C(=O)OCCCN1CCCCC1)c1ccccn21`, the GI50 is 0.314 µM and the TGI was found to be 14.5 µM.
